Measured values as given in patent US20240270762A1, “PENICILLIN-BINDING PROTEIN INHIBITORS” (priority 2021, published 2024).
Converted amounts (≈) assume the structure as drawn.

Key:
A. baumannii ATCC 19606 = experiment: microbe, parasite or virus in culture; type: cell-based; conditions: Acinetobacter baumannii, ATCC19606, read-out: MIC, A. baumannii ATCC 19606
[1] = test system: B. thailandensis ATCC 700388; experiment: microbe, parasite or virus in culture; type: cell-based; conditions: Burkholderia thailandensis, ATCC700388, read-out: Minimum inhibitory concentration (MIC), B. thailandensis ATCC 700388
P. aeruginosa ATCC 27853 = experiment: microbe, parasite or virus in culture; type: cell-based; conditions: Pseudomonas aeruginosa, ATCC27853, read-out: Minimum inhibitory concentration, P. aeruginosa ATCC 27853
P. aeruginosa CDC-0095 = experiment: microbe, parasite or virus in culture; type: cell-based; conditions: Pseudomonas aeruginosa, CDC0095, read-out: Minimum inhibitory concentration, P. aeruginosa CDC-0095
P. aeruginosa CDC-0110 = experiment: microbe, parasite or virus in culture; type: cell-based; conditions: Pseudomonas aeruginosa, CDC0110, read-out: Minimum inhibitory concentration, P. aeruginosa CDC-0110
A. baumannii CDC-0045 = experiment: microbe, parasite or virus in culture; type: cell-based; conditions: Acinetobacter baumannii, CDC0045, read-out: MIC, A. baumannii CDC-0045
[2] = target: T1, PBP3 from Acinetobacter baumannii (ATCC 19606) (Acinetobacter baumannii, UniProt A0ABX6CK25); experiment: Bocillin-FL fluorescence polarization competition binding, A. baumannii PBP3; conditions: fluorescence polarization competition binding assay using Bocillin-FL; read-out: A. baumannii PBP3 Potency
T1 sequence (A0ABX6CK25 64-610): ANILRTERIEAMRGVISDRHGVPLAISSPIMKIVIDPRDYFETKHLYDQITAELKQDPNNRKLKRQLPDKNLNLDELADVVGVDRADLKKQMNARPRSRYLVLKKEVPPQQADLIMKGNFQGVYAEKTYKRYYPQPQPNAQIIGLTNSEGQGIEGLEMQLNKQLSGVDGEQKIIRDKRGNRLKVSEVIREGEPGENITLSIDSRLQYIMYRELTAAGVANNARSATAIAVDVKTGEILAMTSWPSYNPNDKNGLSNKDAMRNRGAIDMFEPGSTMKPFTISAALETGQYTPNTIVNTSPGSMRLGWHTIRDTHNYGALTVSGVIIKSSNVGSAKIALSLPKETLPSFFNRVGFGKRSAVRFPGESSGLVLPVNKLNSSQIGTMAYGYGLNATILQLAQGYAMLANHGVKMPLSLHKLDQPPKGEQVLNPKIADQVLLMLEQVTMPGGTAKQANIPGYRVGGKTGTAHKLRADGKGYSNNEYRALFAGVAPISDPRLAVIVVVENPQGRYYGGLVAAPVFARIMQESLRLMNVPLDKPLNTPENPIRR
How it was run: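 Purified PBP was preincubated with inhibitor (E. coli PBP3 1.5 μM, 30 min; P. aeruginosa PBP3 0.75 μM, A. baumannii PBP3 0.2 μM and PBP1a 1 μM, 15 min), then Bocillin-FL (0.1 μM; 0.05 μM for PBP1a) added and FP read up to 60 min. EC50 = 50% loss of bound probe.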

A. baumannii PBP2 = A. baumannii PBP2 (Acinetobacter baumannii, UniProt D0C8Z9); experiment: Bocillin-FL competition binding via gel filtration, A. baumannii PBP2
How it was run: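 Competitive equilibrium binding; reporter Bocillin-FL. PBP + inhibitor (titration) pre-incubated → Bocillin-FL, 15 min → gel filtration → fluorescence. EC50 from Hill fit of fraction bound vs [inhibitor].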

Sequence of A. baumannii PBP2 (D0C8Z9 whole entry): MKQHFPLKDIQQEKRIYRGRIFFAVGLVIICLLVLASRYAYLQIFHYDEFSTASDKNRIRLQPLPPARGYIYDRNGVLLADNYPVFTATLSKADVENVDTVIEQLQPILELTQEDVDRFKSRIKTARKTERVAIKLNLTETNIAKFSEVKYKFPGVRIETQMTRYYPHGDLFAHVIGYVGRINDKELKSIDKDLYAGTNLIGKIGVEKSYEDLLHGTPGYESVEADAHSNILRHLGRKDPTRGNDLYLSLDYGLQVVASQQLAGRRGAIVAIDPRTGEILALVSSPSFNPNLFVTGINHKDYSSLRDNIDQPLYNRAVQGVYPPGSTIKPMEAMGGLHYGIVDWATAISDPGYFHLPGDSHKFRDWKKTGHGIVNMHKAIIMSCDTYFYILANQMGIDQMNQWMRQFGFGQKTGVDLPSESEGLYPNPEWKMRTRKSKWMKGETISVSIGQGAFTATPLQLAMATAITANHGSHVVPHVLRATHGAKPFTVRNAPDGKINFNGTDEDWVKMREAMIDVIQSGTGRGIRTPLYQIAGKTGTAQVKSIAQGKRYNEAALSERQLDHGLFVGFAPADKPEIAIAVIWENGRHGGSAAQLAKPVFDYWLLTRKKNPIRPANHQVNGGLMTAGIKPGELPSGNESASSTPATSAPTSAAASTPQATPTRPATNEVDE

SMILES | MIC (A. baumannii ATCC 19606) [µg/mL] | MIC [1] [µg/mL] | MIC (P. aeruginosa ATCC 27853) [µg/mL] | MIC (P. aeruginosa CDC-0095) [µg/mL] | MIC (P. aeruginosa CDC-0110) [µg/mL] | MIC (A. baumannii CDC-0045) [µg/mL] | IC50 [2] [µM] | EC50 (A. baumannii PBP2) [µM]
O=C(O)c1c(F)ccc2c1OB(O)[C@@H](NC(=O)[C@H](NC(=O)N1CCN(C3CCN(C(=O)c4cccc(O)c4F)CC3)C1=O)c1cc(F)c(O)c(O)c1Cl)C2 (single isomer, unassigned) [Example 431] | < 1 | < 1 | < 1 | < 1 | < 1 | < 1 | < 10 | < 10
O=C(O)c1c(F)ccc2c1OB(O)[C@@H](NC(=O)[C@H](NC(=O)N1CCN(C3CCN(C(=O)c4cccc(O)c4Cl)CC3)C1=O)c1cc(F)c(O)c(O)c1Cl)C2 (single isomer, unassigned) [Example 432] | < 1 | < 1 | < 1 | < 1 | < 1 | < 1 | < 10 | < 10
O=C(O)c1c(F)ccc2c1OB(O)[C@@H](NC(=O)[C@H](NC(=O)N1CCN(C3CCN(C(=O)c4cc(O)ccc4F)CC3)C1=O)c1cc(F)c(O)c(O)c1Cl)C2 (single isomer, unassigned) [Example 433] | < 1 | < 1 | < 1 | < 1 | < 1 | < 1 | < 10 | < 10
O=C(O)c1c(F)ccc2c1OB(O)[C@@H](NC(=O)[C@H](NC(=O)N1CCN(C3CCN(C(=O)c4cc(O)ccc4Cl)CC3)C1=O)c1cc(F)c(O)c(O)c1Cl)C2 (single isomer, unassigned) [Example 434] | < 1 | < 1 | < 1 | < 1 | < 1 | < 1 | < 10 | < 10
O=C(O)c1c(F)ccc2c1OB(O)[C@@H](NC(=O)[C@H](NC(=O)N1CCN(C3CCN(C(=O)c4ccc(F)c(O)c4)CC3)C1=O)c1cc(F)c(O)c(O)c1Cl)C2 (single isomer, unassigned) [Example 435] | < 1 | < 1 | < 1 | < 1 | < 1 | < 1 | 10 to 50 | < 10
O=C(O)c1c(F)ccc2c1OB(O)[C@@H](NC(=O)[C@H](NC(=O)N1CCN(C3CCN(C(=O)c4cc(O)cc(F)c4)CC3)C1=O)c1cc(F)c(O)c(O)c1Cl)C2 (single isomer, unassigned) [Example 436] | < 1 | < 1 | < 1 | < 1 | < 1 | < 1 | < 10 | < 10
O=C(O)c1c(F)ccc2c1OB(O)[C@@H](NC(=O)[C@H](NC(=O)N1CCN(C3CCN(C(=O)c4ccc(F)c(O)c4F)CC3)C1=O)c1cc(F)c(O)c(O)c1Cl)C2 (single isomer, unassigned) [Example 437] | < 1 | < 1 | < 1 | < 1 | < 1 | < 1 | < 10 | < 10
O=C(O)c1c(F)ccc2c1OB(O)[C@@H](NC(=O)[C@H](NC(=O)N1CCN(C3CCN(C(=O)c4c(F)ccc(O)c4F)CC3)C1=O)c1cc(F)c(O)c(O)c1Cl)C2 (single isomer, unassigned) [Example 439] | < 1 | < 1 | < 1 | 2 to 4 (≈ 2.52 to 5.04 µM) | < 1 | < 1 | < 10 | < 10
O=C(O)c1c(F)ccc2c1OB(O)[C@@H](NC(=O)[C@H](NC(=O)N1CCN(C3CCN(C(=O)c4c(F)ccc(O)c4Cl)CC3)C1=O)c1cc(F)c(O)c(O)c1Cl)C2 (single isomer, unassigned) [Example 440] | < 1 | < 1 | < 1 | < 1 | < 1 | < 1 | < 10 | < 10
